Results as given in US10307357B2, “Prebiotic oral care compositions containing an alkyl glycoside” (COLGATE-PALMOLIVE COMPANY, priority 2013, dated 2019).

Test system: beneficial oral and pathogenic oral bacteria
Assay: Twenty-four hour optical density, conclusion over the panel
Type: cell-based
Settings: at concentrations of 10, 20 and 25 μmol/ml; threshold 1.25
Source text: Substrates that were able to increase the growth (or maximal growth density or extent of growth) of at least one of the above beneficial bacteria while not or only minimally increasing the growth (or maximal growth density) of the pathogenic bacteria are considered to be prebiotic compounds. The extent of growth of the tested bacteria in response to selected glycosides (β-methyl-D-galactoside and α-methyl-D-galactoside) was investigated by setting up growth curves in a nutritionally rich medium (brain heart infusion broth (BHI), Oxoid), over 24 hours. […] For each combination of bacterium/glycoside, and for each of their respective controls (i.e. the particular bacterium in the nutritionally rich medium with no glycoside), the optical density was measured at 630 nm (OD630) at 0 h and 24 h (Thermo Scientific Multiskan Ascent). Additionally, the OD630 for combinations of bacterium/glycosides grown in a 5% CO2 environment were also measured every hour between 0 h and 9 h. […] For each day and for each combination, the average (mean) of the values obtained (as detailed above) for the four technical replicas was calculated to provide a single value for each combination on each day. […]

With `CO[C@@H]1O[C@H](CO)[C@H](O)[C@H](O)[C@H]1O` [β-methyl-D-galactoside] the “prebiotic effect (extent of growth), in words” value was “exhibited prebiotic effects”.
